Measured values reported in article PMC4312132, “Phenylalanine in the Pore of the Erwinia Ligand-Gated Ion Channel Modulates Picrotoxinin Potency but Not Receptor Function” (Biochemistry, 2014).
Where two headings read alike, the source gives them in different places.

Legend:
[1] = molecular target: T1, F16′Q ELIC (Dickeya chrysanthemi, UniProt P0C7B7, F246Q); test: GABA activation of F16′Q ELIC, two-electrode voltage clamp in Xenopus oocytes; assay type: cell-based, Erwinia chrysanthemii; conditions: F16′Q ELIC; GABA concentration–response
T1 construct: expressed in transfected cells; host or cells: Xenopus laevis oocytes (cRNA injection)

[2] = molecular target: T2, F16′T ELIC (Dickeya chrysanthemi, UniProt P0C7B7, F246T); test: GABA activation of F16′T ELIC, two-electrode voltage clamp in Xenopus oocytes; assay type: cell-based, Erwinia chrysanthemii; conditions: F16′T ELIC; GABA concentration–response
T2 construct: expressed in transfected cells; host or cells: Xenopus laevis oocytes (cRNA injection)

[3] = molecular target: T3, F16′W ELIC (Dickeya chrysanthemi, UniProt P0C7B7, F246W); test: GABA activation of F16′W ELIC, two-electrode voltage clamp in Xenopus oocytes; assay type: cell-based, Erwinia chrysanthemii; conditions: F16′W ELIC; GABA concentration–response
T3 construct: expressed in transfected cells; host or cells: Xenopus laevis oocytes (cRNA injection)

[4] = molecular target: T4, wild type ELIC (Dickeya chrysanthemi, UniProt P0C7B7); test: GABA activation of wild-type ELIC, two-electrode voltage clamp in Xenopus oocytes; assay type: cell-based, Erwinia chrysanthemii
T4 construct: expressed in transfected cells; host or cells: Xenopus laevis oocytes (cRNA injection)
Method: (§1) Xenopus laevis oocyte-positive females were purchased from NASCO (Fort Atkinson, WI) and maintained according to standard methods. Harvested stage V and VI Xenopus oocytes were washed in four changes of Ca^2+-free ND96 [96 mM NaCl, 2 mM KCl, 1 mM MgCl2, and 5 mM HEPES (pH 7.5)], defolliculated in 1.5 mg mL^–1 collagenase type 1A for approximately 2 h, washed again in four changes of ND96, and stored in ND96 at 16 °C containing 2.5 mM sodium pyruvate, […] gentamycin, and 0.7 mM theophylline.
(§2) ELIC (GenBank accession number ADN00343.1) was kindly provided by C. Ulens. For expression in Xenopus oocytes, it was cloned into pGEMHE with the signal sequence of the human α7 nACh receptor. Site-directed mutagenesis was performed with the QuikChange mutagenesis kit (Stratagene, La Jolla, CA). cRNA was transcribed in vitro from the linearized pGEMHE cDNA template using the mMessage mMachine T7 transcription kit (Ambion, Austin, TX). Stage V and VI oocytes were injected with 20 ng of cRNA, and currents were recorded 1–3 days postinjection.
(§3) Using two-electrode voltage clamp, Xenopus oocytes were clamped at −60 mV using an OC-725 amplifier (Warner Instruments, Hamden, CT), Digidata 1322A, and the Strathclyde Electrophysiology Software Package (Department of Physiology and Pharmacology, University of Strathclyde, Glasgow, U.K.). Currents were recorded at 5 kHz and filtered at a frequency of 1 kHz. Microelectrodes were fabricated from borosilicate glass (GC120TF-10, Harvard Apparatus, Edenbridge, Kent, U.K.) using a one-stage horizontal pull (P-87, Sutter Instrument Co., Novato, CA) and filled with 3 M KCl. Pipette resistances ranged from 1.0 to 2.0 MΩ. Oocytes were perfused with ND96 at a constant rate of 12 mL min^–1 with complete solution exchange within 5 s. Drug application was accomplished via a simple gravity-fed system calibrated to run at the same rate. Inhibition by test compounds was measured at the GABA EC50 for each mutant.
Analysis and curve fitting were performed using Prism version 4.03 (GraphPad Software, San Diego, CA). […]

[5] = molecular target: T5, F16′E ELIC (Dickeya chrysanthemi, UniProt P0C7B7, F246E); test: GABA activation of F16′E ELIC, two-electrode voltage clamp in Xenopus oocytes; assay type: cell-based, Erwinia chrysanthemii
T5 construct: expressed in transfected cells; host or cells: Xenopus laevis oocytes (cRNA injection)
Method: as §1
(§4) ELIC (GenBank accession number ADN00343.1) was kindly provided by C. Ulens. For expression in Xenopus oocytes, it was cloned into pGEMHE with the signal sequence of the human α7 nACh receptor. […] Stage V and VI oocytes were injected with 20 ng of cRNA, and currents were recorded 1–3 days postinjection.
(§5) Using two-electrode voltage clamp, Xenopus oocytes were clamped at −60 mV using an OC-725 amplifier (Warner Instruments, Hamden, CT), Digidata 1322A, and the Strathclyde Electrophysiology Software Package (Department of Physiology and Pharmacology, University of Strathclyde, Glasgow, U.K.). Currents were recorded at 5 kHz and filtered at a frequency of 1 kHz. […] Inhibition by test compounds was measured at the GABA EC50 for each mutant. […]

[6] = molecular target: T6, F16′A ELIC (Dickeya chrysanthemi, UniProt P0C7B7, F246A); test: GABA activation of F16′A ELIC, two-electrode voltage clamp in Xenopus oocytes; assay type: cell-based, Erwinia chrysanthemii; conditions: F16′A ELIC; GABA concentration–response
T6 construct: expressed in transfected cells; host or cells: Xenopus laevis oocytes (cRNA injection)
Method: as §1, §4, §5

[7] = molecular target: T7, F16′Y ELIC (Dickeya chrysanthemi, UniProt P0C7B7, F246Y); test: GABA activation of F16′Y ELIC, two-electrode voltage clamp in Xenopus oocytes; assay type: cell-based, Erwinia chrysanthemii; conditions: F16′Y ELIC; GABA concentration–response
T7 construct: expressed in transfected cells; host or cells: Xenopus laevis oocytes (cRNA injection)

[8] = molecular target: T8, F16′S/T6′S ELIC (Dickeya chrysanthemi, UniProt P0C7B7, F246S/T236S); test: GABA activation of F16′S/T6′S ELIC, two-electrode voltage clamp in Xenopus oocytes; assay type: cell-based, Erwinia chrysanthemii; conditions: F16′S/T6′S ELIC; GABA concentration–response
T8 construct: expressed in transfected cells; host or cells: Xenopus laevis oocytes (cRNA injection)

[9] = molecular target: T9, T6′A ELIC (Dickeya chrysanthemi, UniProt P0C7B7, T236A); test: GABA activation of T6′A ELIC, two-electrode voltage clamp in Xenopus oocytes; assay type: cell-based, Erwinia chrysanthemii; conditions: T6′A ELIC; GABA concentration–response
T9 construct: expressed in transfected cells; host or cells: Xenopus laevis oocytes (cRNA injection)

[10] = molecular target: T10, Q2′A ELIC (Dickeya chrysanthemi, UniProt P0C7B7, Q232A); test: GABA activation of Q2′A ELIC, two-electrode voltage clamp in Xenopus oocytes; assay type: cell-based, Erwinia chrysanthemii; conditions: Q2′A receptors
T10 construct: expressed in transfected cells; host or cells: Xenopus laevis oocytes (cRNA injection)
Method: as §1, §4, §5

[11] = molecular target: T11, F16′L ELIC (Dickeya chrysanthemi, UniProt P0C7B7, F246L); test: GABA activation of F16′L ELIC, two-electrode voltage clamp in Xenopus oocytes; assay type: cell-based, Erwinia chrysanthemii
T11 construct: expressed in transfected cells; host or cells: Xenopus laevis oocytes (cRNA injection)
Method: as §1, §4, §5

[12] = molecular target: T12, F16′S ELIC (Dickeya chrysanthemi, UniProt P0C7B7, F246S); test: GABA activation of F16′S ELIC, two-electrode voltage clamp in Xenopus oocytes; assay type: cell-based, Erwinia chrysanthemii; conditions: F16′S ELIC; GABA concentration–response
T12 construct: expressed in transfected cells; host or cells: Xenopus laevis oocytes (cRNA injection)

[13] = molecular target: T13, F16′D ELIC (Dickeya chrysanthemi, UniProt P0C7B7, F246D); test: GABA activation of F16′D ELIC, two-electrode voltage clamp in Xenopus oocytes; assay type: cell-based, Erwinia chrysanthemii; conditions: F16′D ELIC; GABA concentration–response
T13 construct: expressed in transfected cells; host or cells: Xenopus laevis oocytes (cRNA injection)

[14] = molecular target: T14, T6′S ELIC (Dickeya chrysanthemi, UniProt P0C7B7, T236S); test: GABA activation of T6′S ELIC, two-electrode voltage clamp in Xenopus oocytes; assay type: cell-based, Erwinia chrysanthemii; conditions: T6′S ELIC; GABA concentration–response
T14 construct: expressed in transfected cells; host or cells: Xenopus laevis oocytes (cRNA injection)

[15] = molecular target: T15, Q2′N ELIC (Dickeya chrysanthemi, UniProt P0C7B7, Q232N); test: GABA activation of Q2′N ELIC, two-electrode voltage clamp in Xenopus oocytes; assay type: cell-based, Erwinia chrysanthemii; conditions: Q2′N ELIC; GABA concentration–response
T15 construct: expressed in transfected cells; host or cells: Xenopus laevis oocytes (cRNA injection)

[16] = molecular target: T6, F16′A ELIC; test: Inhibition of GABA-elicited currents of F16′A ELIC in Xenopus oocytes; assay type: cell-based, Erwinia chrysanthemii; conditions: F16′A ELIC; inhibition curve
[17] = molecular target: T4, wild type ELIC; test: Inhibition of GABA-elicited currents of wild-type ELIC in Xenopus oocytes; assay type: cell-based, Erwinia chrysanthemii
Method: as §1, §2, §3
Analysis and curve fitting were performed using Prism version 4.03 (GraphPad Software, San Diego, CA). Concentration–response data for each oocyte were normalized to the maximal current for that oocyte and the mean ± standard error of the mean (SEM) for a series of oocytes pooled and plotted against agonist or antagonist concentration and iteratively fit to the four-parameter logistic equation. Statistical analysis was performed using a Student’s t test.

[18] = molecular target: T9, T6′A ELIC; test: Inhibition of GABA-elicited currents of T6′A ELIC in Xenopus oocytes; assay type: cell-based, Erwinia chrysanthemii; conditions: T6′A ELIC; inhibition curve
Method: as §1, §4, §5

[19] = molecular target: T5, F16′E ELIC; test: Inhibition of GABA-elicited currents of F16′E ELIC in Xenopus oocytes; assay type: cell-based, Erwinia chrysanthemii; conditions: F16′E ELIC; inhibition curve
[20] = molecular target: T3, F16′W ELIC; test: Inhibition of GABA-elicited currents of F16′W ELIC in Xenopus oocytes; assay type: cell-based, Erwinia chrysanthemii; conditions: F16′W ELIC
[21] = molecular target: T12, F16′S ELIC; test: Inhibition of GABA-elicited currents of F16′S ELIC in Xenopus oocytes; assay type: cell-based, Erwinia chrysanthemii; conditions: F16′S ELIC
[22] = molecular target: T15, Q2′N ELIC; test: Inhibition of GABA-elicited currents of Q2′N ELIC in Xenopus oocytes; assay type: cell-based, Erwinia chrysanthemii; conditions: Q2′N ELIC; inhibition curve
[23] = molecular target: T2, F16′T ELIC; test: Inhibition of GABA-elicited currents of F16′T ELIC in Xenopus oocytes; assay type: cell-based, Erwinia chrysanthemii; conditions: F16′T ELIC; inhibition curve
[24] = molecular target: T13, F16′D ELIC; test: Inhibition of GABA-elicited currents of F16′D ELIC in Xenopus oocytes; assay type: cell-based, Erwinia chrysanthemii; conditions: F16′D ELIC; inhibition curve
Method: as §1, §4, §5

[25] = tested on: GLIC; parameters: method as in PMID 22677470, PMID 22208189; conditions: cited from earlier work
[26] = molecular target: T14, T6′S ELIC; test: Inhibition of GABA-elicited currents of T6′S ELIC in Xenopus oocytes; assay type: cell-based, Erwinia chrysanthemii; conditions: T6′S ELIC; inhibition curve
[27] = tested on: F16′A mutant ELIC; conditions: F16′A mutant vs wild type; as previously shown; cited from earlier work
[28] = molecular target: T4, wild type ELIC; conditions: previously identified; cited from earlier work
[29] = tested on: ELIC with mutations of residues 2′ and 6′; conditions: mutations of residues 2′ and 6′ in ELIC; cited from earlier work

T5 sequence (P0C7B7 whole entry F246E): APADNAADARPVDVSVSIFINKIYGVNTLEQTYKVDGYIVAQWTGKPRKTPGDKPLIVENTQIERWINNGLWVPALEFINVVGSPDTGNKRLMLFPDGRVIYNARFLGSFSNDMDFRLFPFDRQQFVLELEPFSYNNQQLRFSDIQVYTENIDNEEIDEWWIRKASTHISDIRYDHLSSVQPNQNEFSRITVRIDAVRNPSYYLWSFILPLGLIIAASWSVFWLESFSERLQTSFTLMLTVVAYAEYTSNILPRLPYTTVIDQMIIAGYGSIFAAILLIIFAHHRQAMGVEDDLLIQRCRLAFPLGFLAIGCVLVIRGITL
T4 sequence (P0C7B7 whole entry): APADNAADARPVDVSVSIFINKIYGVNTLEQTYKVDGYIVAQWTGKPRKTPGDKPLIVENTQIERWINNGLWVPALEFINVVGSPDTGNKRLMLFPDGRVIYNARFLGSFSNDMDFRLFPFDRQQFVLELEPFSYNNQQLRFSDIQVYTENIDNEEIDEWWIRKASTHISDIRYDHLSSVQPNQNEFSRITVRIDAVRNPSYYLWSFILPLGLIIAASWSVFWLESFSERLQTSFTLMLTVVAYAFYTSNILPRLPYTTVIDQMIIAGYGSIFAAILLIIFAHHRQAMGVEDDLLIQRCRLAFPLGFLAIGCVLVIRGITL
T12 sequence (P0C7B7 whole entry F246S): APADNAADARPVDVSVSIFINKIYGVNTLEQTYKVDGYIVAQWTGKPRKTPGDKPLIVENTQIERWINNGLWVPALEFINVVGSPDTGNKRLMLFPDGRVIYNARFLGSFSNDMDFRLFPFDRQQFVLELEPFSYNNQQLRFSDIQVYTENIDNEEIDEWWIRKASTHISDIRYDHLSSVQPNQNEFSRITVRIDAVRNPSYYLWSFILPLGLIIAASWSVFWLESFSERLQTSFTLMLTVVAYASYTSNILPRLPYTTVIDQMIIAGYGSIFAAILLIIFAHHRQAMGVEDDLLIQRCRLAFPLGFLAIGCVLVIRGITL
T3 sequence (P0C7B7 whole entry F246W): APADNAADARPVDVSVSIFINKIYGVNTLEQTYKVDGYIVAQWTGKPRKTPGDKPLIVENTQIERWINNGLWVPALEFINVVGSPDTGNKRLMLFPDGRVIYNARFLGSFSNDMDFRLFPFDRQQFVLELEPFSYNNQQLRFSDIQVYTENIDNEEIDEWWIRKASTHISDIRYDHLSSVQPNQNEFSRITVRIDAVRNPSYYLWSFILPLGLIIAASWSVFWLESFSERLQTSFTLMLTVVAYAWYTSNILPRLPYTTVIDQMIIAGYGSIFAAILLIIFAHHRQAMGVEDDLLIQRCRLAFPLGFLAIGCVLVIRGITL
T15 sequence (P0C7B7 whole entry Q232N): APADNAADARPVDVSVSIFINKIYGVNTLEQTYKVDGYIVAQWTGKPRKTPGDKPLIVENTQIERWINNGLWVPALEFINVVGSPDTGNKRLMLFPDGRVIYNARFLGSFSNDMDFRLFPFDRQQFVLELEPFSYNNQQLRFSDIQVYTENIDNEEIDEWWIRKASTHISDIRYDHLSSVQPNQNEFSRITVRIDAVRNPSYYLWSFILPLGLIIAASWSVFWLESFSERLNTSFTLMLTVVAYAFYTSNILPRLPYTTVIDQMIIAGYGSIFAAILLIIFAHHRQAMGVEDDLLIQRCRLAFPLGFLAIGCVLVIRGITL
T11 sequence (P0C7B7 whole entry F246L): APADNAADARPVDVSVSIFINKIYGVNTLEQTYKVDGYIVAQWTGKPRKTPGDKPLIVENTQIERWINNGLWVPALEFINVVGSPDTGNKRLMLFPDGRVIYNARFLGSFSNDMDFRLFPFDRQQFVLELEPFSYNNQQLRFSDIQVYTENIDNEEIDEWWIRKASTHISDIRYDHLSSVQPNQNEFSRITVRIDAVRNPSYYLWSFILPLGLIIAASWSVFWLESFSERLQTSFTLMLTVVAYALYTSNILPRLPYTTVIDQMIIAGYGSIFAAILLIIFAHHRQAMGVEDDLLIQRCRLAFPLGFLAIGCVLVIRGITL
T2 sequence (P0C7B7 whole entry F246T): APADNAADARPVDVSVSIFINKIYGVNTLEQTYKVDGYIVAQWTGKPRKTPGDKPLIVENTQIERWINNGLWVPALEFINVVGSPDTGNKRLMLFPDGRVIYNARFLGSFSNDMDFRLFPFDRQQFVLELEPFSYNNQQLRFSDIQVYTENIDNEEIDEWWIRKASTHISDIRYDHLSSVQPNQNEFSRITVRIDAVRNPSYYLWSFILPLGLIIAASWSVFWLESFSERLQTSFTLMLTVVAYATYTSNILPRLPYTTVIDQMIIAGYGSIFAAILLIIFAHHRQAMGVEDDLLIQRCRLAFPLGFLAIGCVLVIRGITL
T14 sequence (P0C7B7 whole entry T236S): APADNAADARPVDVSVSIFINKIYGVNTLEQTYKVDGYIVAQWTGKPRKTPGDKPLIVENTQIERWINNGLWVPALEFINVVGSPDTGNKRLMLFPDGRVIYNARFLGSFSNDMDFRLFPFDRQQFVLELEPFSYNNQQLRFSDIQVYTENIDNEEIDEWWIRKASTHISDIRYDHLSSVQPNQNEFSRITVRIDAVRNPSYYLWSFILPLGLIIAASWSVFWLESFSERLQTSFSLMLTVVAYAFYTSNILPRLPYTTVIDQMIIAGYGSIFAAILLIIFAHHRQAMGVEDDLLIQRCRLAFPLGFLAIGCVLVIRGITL
T6 sequence (P0C7B7 whole entry F246A): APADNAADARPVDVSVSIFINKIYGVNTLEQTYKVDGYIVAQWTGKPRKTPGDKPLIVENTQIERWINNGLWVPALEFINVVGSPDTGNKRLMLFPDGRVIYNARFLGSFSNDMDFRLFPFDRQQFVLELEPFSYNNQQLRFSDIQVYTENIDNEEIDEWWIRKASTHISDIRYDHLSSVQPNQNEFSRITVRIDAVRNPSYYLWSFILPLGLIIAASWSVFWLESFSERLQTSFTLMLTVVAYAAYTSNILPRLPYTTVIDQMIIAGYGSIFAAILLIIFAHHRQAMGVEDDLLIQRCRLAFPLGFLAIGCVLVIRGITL
T9 sequence (P0C7B7 whole entry T236A): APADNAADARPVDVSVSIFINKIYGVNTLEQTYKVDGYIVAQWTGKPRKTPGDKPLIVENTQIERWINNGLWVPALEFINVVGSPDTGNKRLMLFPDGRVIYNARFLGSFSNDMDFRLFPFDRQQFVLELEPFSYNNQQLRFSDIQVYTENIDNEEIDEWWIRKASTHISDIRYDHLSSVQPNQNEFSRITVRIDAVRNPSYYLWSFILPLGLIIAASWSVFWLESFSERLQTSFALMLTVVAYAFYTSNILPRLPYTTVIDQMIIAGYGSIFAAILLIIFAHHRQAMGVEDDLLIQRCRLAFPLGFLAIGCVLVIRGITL
T13 sequence (P0C7B7 whole entry F246D): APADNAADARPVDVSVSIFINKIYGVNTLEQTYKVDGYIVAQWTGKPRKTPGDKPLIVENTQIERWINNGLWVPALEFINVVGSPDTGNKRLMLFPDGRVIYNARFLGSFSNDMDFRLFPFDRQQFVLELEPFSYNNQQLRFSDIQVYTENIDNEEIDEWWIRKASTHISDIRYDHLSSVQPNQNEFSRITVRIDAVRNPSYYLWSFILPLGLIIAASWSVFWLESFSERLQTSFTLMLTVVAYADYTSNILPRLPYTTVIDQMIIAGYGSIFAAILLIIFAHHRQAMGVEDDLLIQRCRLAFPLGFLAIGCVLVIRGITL
T1 sequence (P0C7B7 whole entry F246Q): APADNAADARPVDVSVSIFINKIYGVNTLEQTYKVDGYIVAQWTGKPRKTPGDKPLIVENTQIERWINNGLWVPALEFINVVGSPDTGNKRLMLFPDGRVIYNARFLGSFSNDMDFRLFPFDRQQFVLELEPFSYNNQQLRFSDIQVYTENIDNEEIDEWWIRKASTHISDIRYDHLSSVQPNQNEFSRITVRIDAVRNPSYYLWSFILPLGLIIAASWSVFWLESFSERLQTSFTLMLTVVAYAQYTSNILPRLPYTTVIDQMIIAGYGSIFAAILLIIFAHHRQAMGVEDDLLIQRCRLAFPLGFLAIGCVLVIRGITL
T7 sequence (P0C7B7 whole entry F246Y): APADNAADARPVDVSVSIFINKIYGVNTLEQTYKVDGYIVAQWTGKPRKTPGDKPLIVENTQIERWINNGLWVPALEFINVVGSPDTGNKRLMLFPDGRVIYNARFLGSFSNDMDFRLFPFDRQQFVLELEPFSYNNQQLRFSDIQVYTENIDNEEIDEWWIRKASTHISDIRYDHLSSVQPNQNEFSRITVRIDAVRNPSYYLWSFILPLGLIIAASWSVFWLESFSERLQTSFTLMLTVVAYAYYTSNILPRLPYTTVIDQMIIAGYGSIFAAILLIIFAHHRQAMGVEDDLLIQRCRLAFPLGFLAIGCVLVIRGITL
T10 sequence (P0C7B7 whole entry Q232A): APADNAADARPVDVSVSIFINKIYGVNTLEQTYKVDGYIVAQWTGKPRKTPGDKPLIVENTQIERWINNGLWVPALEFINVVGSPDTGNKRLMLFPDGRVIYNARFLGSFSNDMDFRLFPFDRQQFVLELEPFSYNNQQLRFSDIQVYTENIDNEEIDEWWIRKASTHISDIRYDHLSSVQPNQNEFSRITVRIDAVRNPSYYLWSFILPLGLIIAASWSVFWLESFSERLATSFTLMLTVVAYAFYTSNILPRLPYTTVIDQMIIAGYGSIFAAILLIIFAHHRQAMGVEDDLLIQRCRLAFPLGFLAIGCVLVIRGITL
T8 sequence (P0C7B7 whole entry T236S/F246S): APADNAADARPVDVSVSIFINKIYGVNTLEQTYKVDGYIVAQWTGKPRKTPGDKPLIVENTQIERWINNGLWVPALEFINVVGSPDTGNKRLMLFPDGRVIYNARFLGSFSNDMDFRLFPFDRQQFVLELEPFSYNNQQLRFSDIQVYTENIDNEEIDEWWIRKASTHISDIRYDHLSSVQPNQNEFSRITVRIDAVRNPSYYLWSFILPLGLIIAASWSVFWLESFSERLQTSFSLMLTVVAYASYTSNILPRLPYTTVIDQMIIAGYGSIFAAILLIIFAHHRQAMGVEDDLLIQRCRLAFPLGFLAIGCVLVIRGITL

## NCCCC(=O)O [GABA, γ-aminobutyric acid]
[1]
  nH: 2.3 ± 0.6
[2]
  nH: 1.8 ± 0.3
[3]
  nH: 3.6 ± 0.5
[4]; GABA concentration–response
  nH (Hill slope): 2.5 ± 0.7
[4]; oocytes clamped at −60 mV, mean ± SEM, read-out: GABA pEC50 (converted)
  EC50: 1.66 mM
[4]; read-out: GABA EC50
  EC50: 1.6 mM
[5]; F16′E ELIC vs wild type
  fold increase in EC50 compared to wild type: 16 fold
[5]; F16′E ELIC, GABA concentration–response
  nH: 1.3 ± 0.2
[6]
  nH: 3.0 ± 0.5
[7]
  nH: 2.1 ± 0.3
[8]
  nH: 2.2 ± 0.7
[9]
  nH: 2.1 ± 0.1
[10]
  response to application of 100 mM GABA: did not respond
[11]; F16′L ELIC vs wild type
  fold change in EC50 compared to wild type: 32 fold
[11]; F16′L ELIC, GABA concentration–response
  nH: 1.6 ± 0.2
[12]
  nH: 2.5 ± 0.6
[13]
  nH: 2.5 ± 0.3
[14]
  nH: 2.7 ± 0.3
[15]
  nH: 2.6 ± 1.3

## C=C(C)[C@@H]1[C@H]2OC(=O)[C@@H]1[C@]1(O)C[C@H]3O[C@]34C(=O)O[C@H]2[C@]14C [PXN, Picrotoxinin]
[16]
  nH: 1.0 ± 0.2
[17]
  IC50: 72 µM
[17]; read-out: inhibition of the GABA EC50 response
  inhibition at 100 µM: ~50%
[17]; wild type ELIC, inhibition curve
  nH: 1.3 ± 0.3
[18]
  nH: 1.8 ± 0.4
[19]
  nH: 0.6 ± 0.1
[20]; co-application of 100 μM PXN with GABA EC50, read-out: inhibition of the GABA EC50 response
  inhibition at 100 µM: ~50%
[20]; inhibition curve
  nH: 1.3 ± 0.3
[21]; co-application of 100 μM PXN with GABA EC50
  inhibition of the GABA EC50 response: completely abolishes
[21]; inhibition curve
  nH: 1.3 ± 0.3
[22]
  nH: 1.6 ± 0.3
[23]
  nH: 0.9 ± 0.1
[24]
  nH: 1.0 ± 0.2
[25]
  IC50: 2600 nM
[26]
  nH: 1.3 ± 0.3

## NCCS [cysteamine]
[27]
  fold change in cysteamine EC50: < 10 fold

## CCCC(C(=O)OCCN(CC)CC)(c1ccccc1)c1ccccc1 [proadifen]
[17]; wild type ELIC, inhibition measured at the GABA EC50, read-out: IC50
  IC50: 8.1 µM
[28]
  IC50: 8 µM

## O=S1OC[C@@H]2[C@H](CO1)[C@@]1(Cl)C(Cl)=C(Cl)[C@]2(Cl)C1(Cl)Cl (stereo partly drawn) [α-endosufan]
[29]
  inhibition of ELIC: abolish inhibition
